For this assay, the system named is HIV-1 (NL4-3 strain). Kind of assay: Assay for Inhibition of HIV Replication (kinetic assay, MT4-gag-GFP reporter cell line; VIKING). Format: cell-based. The protocol:
This assay is a kinetic assay that employs a reporter cell line (MT4-gag-GFP) to quantify the number of new cells infected in each round of replication.
MT4-GFP cells (250,000 cells/ml) were bulk-infected with HIV-1 (NL4-3 strain) at low multiplicity of infection (MOI) in RPMI cell culture medium+10% FBS for 24 hours. Cells were then washed once in RPMI cell culture medium+10% FBS and resuspended in RPMI cell culture medium+0% or 10% or 100% normal human serum (NHS). Test compounds were serial-diluted in DMSO on an ECHO® liquid handler. The infected MT4-GFP cells were added to a 384-well poly-D-lysine coated black plate with clear bottom in which the diluted test compounds were placed. The cells were seeded at 8,000 cells per well and the final DMSO concentration was 0.4%. The infected cells (Green GFP cells) were quantified at both 24 and 48 hours post incubation using Acumen eX3. Viral reproductive ratio (R0) was determined using the number of infected cells at 48 hours divided by the number of infected cells at 24 hours. Percent viral growth inhibition was calculated by [1-(R-Rtripledrug),/(RDMSO-Rtripledrug)]*100. Compound potency IP or IC50 was determined by a 4-parameter dose response curve analysis. In vitro potency in the cell-based assay in the absence of normal human serum (NHS) and the presence of 100% NHS.

[1] abbreviates: MT4-GFP cells infected with HIV-1 NL4-3, 0% normal human serum (NHS), read-out: VIKING IP50 (nM) with 0% NHS.
Where [2] appears, read: MT4-GFP cells infected with HIV-1 NL4-3, 100% normal human serum (NHS), read-out: VIKING IP50 (nM) with 100% NHS.
Setting [3] is: Human immunodeficiency virus 1, NL43, MT4-GFP cells infected with HIV-1 NL4-3, 0% normal human serum (NHS), read-out: VIKING IP50 (nM) with 0% NHS.
The mark [4] stands for this setting: Human immunodeficiency virus 1, NL43, MT4-GFP cells infected with HIV-1 NL4-3, 100% normal human serum (NHS), read-out: VIKING IP50 (nM) with 100% NHS.

These results are taken from patent publication US10829499B2, “Tetracyclic heterocycle compounds useful as HIV integrase inhibitors” (MERCK SHARP & DOHME CORP., priority 2016, dated 2020).

Molecules are shown by their SMILES. Like-named read-outs stand apart in the source and are kept apart here.

Turning to `COC1CC2C3N(C)CCN3C(=O)c3c(O)c(=O)c(C(=O)NCc4ccc(F)cc4F)c1n32` (stereo not shown) [Compound 124], the IC50 was 7.41 nM under setting [1] and 28 nM under setting [2].
As for `C[C@@H]1COC2C3CCc4c(C(=O)NCc5cccc(Cl)c5F)c(=O)c(O)c(n43)C(=O)N21` (single isomer, unassigned) [Compound 36], the IC50 is, setting by setting: under setting [3], 0.826 nM; under setting [4], 1060 nM.
As to `CCNC1CC2C3OCCCN3C(=O)c3c(O)c(=O)c(C(=O)NCc4ccc(F)cc4F)c1n32` (stereo not shown) [Compound 207], the IC50 stood at 5.21 nM under setting [1] and 140 nM under setting [2].
For `C[C@H]1CN2C(=O)c3c(O)c(=O)c(C(=O)NCc4cccc(Cl)c4F)c4n3C(CC4)C2N1` (stereo partly shown) [Compound 92], the IC50 under setting [1] was 0.67 nM and the IC50 under setting [2] is 8.12 nM.
For `CCNC1CC2C3OCCCN3C(=O)c3c(O)c(=O)c(C(=O)NCc4cccc(F)c4F)c1n32` (stereo not shown) [Compound 190] the same measures were 5.26 nM and 66.4 nM.
Turning to `CN1CCCN2C(=O)c3c(O)c(=O)c(C(=O)NCc4ccc(F)cc4F)c4n3C(CC4)C12` (single isomer, unassigned) [Compound 81], the IC50 under setting [3] turned out to be 1.15 nM and the IC50 under setting [2] is 24.2 nM.
Take `O=C(NCc1c(F)cc(F)cc1F)c1c2n3c(c(O)c1=O)C(=O)N1CCOC1C3CC2` (single isomer, unassigned) [Compound 21]: the IC50 is, setting by setting: under setting [1], 0.605 nM; under setting [2], 158 nM.
With `COC1CC2C3OCCN3C(=O)c3c(O)c(=O)c(C(=O)NCc4ccc(F)cc4F)c1n32` (single isomer, unassigned) [Compound 74], the IC50 by setting is: under setting [1], 2.19 nM; under setting [2], 181 nM.
For the molecule `CCNC1C[C@H]2[C@H]3OC4CCC(C4)N3C(=O)c3c(O)c(=O)c(C(=O)NCc4ccc(F)cc4F)c1n32` (stereo partly shown) [Compound 177], the IC50 runs as follows: under setting [1], 11.2 nM; under setting [2], 191 nM.
As for `C[C@H]1CN(C)C2C3CCc4c(C(=O)NCc5cccc(Cl)c5F)c(=O)c(O)c(n43)C(=O)N21` (stereo partly shown) [Compound 109], the IC50 stood at 1.17 nM under setting [3] and 480 nM under setting [2].
With `C[C@H]1CN2C(=O)c3c(O)c(=O)c(C(=O)NCc4cccc(Cl)c4F)c4n3C(CC4)C2N1` (stereo partly shown) [Compound 94], the IC50 is 0.503 nM under setting [1] and 14.5 nM under setting [2].
On to `CN1CCCN2C(=O)c3c(O)c(=O)c(C(=O)NCc4ccc(F)cc4F)c4n3C(CC4)C12` (single isomer, unassigned) [Compound 83], for which the IC50 under setting [1] is 0.857 nM and the IC50 under setting [2] stood at 16.8 nM.
As for `O=C(NCc1ccccc1F)c1c2n3c(c(O)c1=O)C(=O)N1CCOC1C3CC2` (single isomer, unassigned) [Compound 10], the IC50 worked out at 0.813 nM under setting [3] and 226 nM under setting [2].
Consider `CCNC1CC2C3OCCCN3C(=O)c3c(O)c(=O)c(C(=O)NCc4c(F)cc(F)cc4F)c1n32` (stereo not shown) [Compound 180], for which the IC50 under setting [1] was determined as 3.57 nM and the IC50 under setting [2] came to 20.1 nM.
Take `C[C@H]1CNC2C3CCc4c(C(=O)NCc5cccc(Cl)c5F)c(=O)c(O)c(n43)C(=O)N21` (stereo partly shown) [Compound 88]: the IC50 reads like this: under setting [3], 0.705 nM; under setting [4], 13.7 nM.
As for `O=C(NCc1cccc(Cl)c1F)c1c2n3c(c(O)c1=O)C(=O)N1C4CCC(C4)OC1C3CC2` (stereo not shown) [Compound 152], the IC50 came out at 5.52 nM under setting [3] and 2100 nM under setting [2].
As to `CCNC1CC2C3OCCCN3C(=O)c3c(O)c(=O)c(C(=O)NCc4cccc(F)c4F)c1n32` (stereo not shown) [Compound 187], the IC50 came to 3.51 nM under setting [1] and 49.1 nM under setting [2].
As to `CC(=O)N1C2C3CCc4c(C(=O)NCc5cccc(Cl)c5F)c(=O)c(O)c(n43)C(=O)N2C[C@@H]1C` (stereo partly shown) [Compound 123], the IC50 under setting [1] turned out to be 2.56 nM and the IC50 under setting [2] came out at 58.6 nM.
Regarding `O=C(NCc1cccc(Cl)c1F)c1c2n3c(c(O)c1=O)C(=O)N1C4CCC(C4)OC1C3CC2` (stereo not shown) [Compound 153], the IC50 amounted to 4.53 nM under setting [1] and 95.5 nM under setting [2].
For `O=C(NCc1ccc(F)c(Cl)c1)c1c2n3c(c(O)c1=O)C(=O)N1CCOC1C3CC2` (single isomer, unassigned) [Compound 25] the same measures were 0.809 nM and 2540 nM.
As to `C[C@H]1CN2C(=O)c3c(O)c(=O)c(C(=O)NCc4cccc(Cl)c4F)c4n3C(CC4)C2N1C` (stereo partly shown) [Compound 104], the IC50 came to 0.397 nM under setting [1] and 71.4 nM under setting [2].
On to `C[C@@H]1COC2C3CCc4c(C(=O)NCc5ccc(F)cc5F)c(=O)c(O)c(n43)C(=O)N21` (single isomer, unassigned) [Compound 34], for which the IC50 was found to be 0.635 nM under setting [1] and 1560 nM under setting [2].
With `O=C(NCc1ccc(F)cc1F)c1c2n3c(c(O)c1=O)C(=O)N1CCOC1C3CC2` (single isomer, unassigned) [Compound 9], the IC50 is 0.7 nM under setting [3] and 1130 nM under setting [2].
Turning to `CCNC1CC2C3OCCCN3C(=O)c3c(O)c(=O)c(C(=O)NCc4c(F)cc(F)cc4F)c1n32` (stereo not shown) [Compound 184], the IC50 came to 5 nM under setting [1] and 167 nM under setting [2].
Turning to `O=C(NCc1c(F)cc(F)cc1F)c1c2n3c(c(O)c1=O)C(=O)N1CCOC1C3CC2` (single isomer, unassigned) [Compound 18], the IC50 reads like this: under setting [3], 0.483 nM; under setting [4], 8000 nM.
In the case of `COC1CC2C3OCCN3C(=O)c3c(O)c(=O)c(C(=O)NCc4ccc(F)cc4F)c1n32` (single isomer, unassigned) [Compound 75], the IC50 was found to be 4.99 nM under setting [1] and 6180 nM under setting [2].
For `O=C(NCc1ccc(F)cc1)c1c2n3c(c(O)c1=O)C(=O)N1C4CCC(C4)OC1C3CC2` (stereo not shown) [Compound 161] the same measures were 2.67 nM and 5510 nM.
As to `CN1CCCN2C(=O)c3c(O)c(=O)c(C(=O)NCc4ccc(F)cc4F)c4n3C(CC4)C12C` (stereo not shown) [Compound 142], the IC50 was found to be 0.504 nM under setting [1] and 9.41 nM under setting [2].
Consider `O=C(NCc1ccc(F)cc1)c1c2n3c(c(O)c1=O)C(=O)N1C4CCC(C4)OC1C3CC2` (stereo not shown) [Compound 160], for which the IC50 was found to be 4.14 nM under setting [3] and 73.1 nM under setting [2].
In the case of `CN1CCCN2C(=O)c3c(O)c(=O)c(C(=O)NCc4ccc(F)cc4F)c4n3C(CC4)C12` (stereo not shown) [Compound 80], the IC50 was 0.662 nM under setting [3] and 13.8 nM under setting [4].
Regarding `O=C(NCc1ccc(F)cc1)c1c2n3c(c(O)c1=O)C(=O)N1CCCOC1C3CC2` (single isomer, unassigned) [Compound 52], the IC50 is 1.29 nM under setting [1] and 3380 nM under setting [2].
With `CCNC1CC2C3OCCCN3C(=O)c3c(O)c(=O)c(C(=O)NCc4c(F)cc(F)cc4F)c1n32` (stereo not shown) [Compound 183], the IC50 came to 13.3 nM under setting [1] and 3570 nM under setting [2].
Regarding `CCNC1CC2C3OCCCN3C(=O)c3c(O)c(=O)c(C(=O)NCc4ccc(F)cc4F)c1n32` (stereo not shown) [Compound 205], the IC50 is, setting by setting: under setting [1], 11.3 nM; under setting [2], 116 nM.
With `CCNC1CC2C3OCCCN3C(=O)c3c(O)c(=O)c(C(=O)NCc4cccc(F)c4F)c1n32` (stereo not shown) [Compound 189], the IC50 is 11 nM under setting [1] and 3870 nM under setting [2].
For `C[C@H]1CN2C(=O)c3c(O)c(=O)c(C(=O)NCc4ccc(F)cc4F)c4n3C(CC4)C2N1` (stereo partly shown) [Compound 97] the same measures were 4.3 nM and 48.3 nM.
`C[C@H]1CN2C(=O)c3c(O)c(=O)c(C(=O)NCc4cccc(Cl)c4F)c4n3C(CC4)C2N1C` (stereo partly shown) [Compound 102]: the IC50 under setting [3] was determined as 1.05 nM and the IC50 under setting [4] is 579 nM.
With `CCNC1CC2C3OCCCN3C(=O)c3c(O)c(=O)c(C(=O)NCc4ccc(F)cc4F)c1n32` (stereo not shown) [Compound 206], the IC50 came to 7.11 nM under setting [1] and 51.6 nM under setting [2].
With `CC12NCCN1C(=O)c1c(O)c(=O)c(C(=O)NCc3ccc(F)cc3F)c3n1C2CC3` (stereo not shown) [Compound 138], the IC50 under setting [1] worked out at 2.41 nM and the IC50 under setting [2] came to 27 nM.
For `O=C(NCc1cccc(F)c1F)c1c2n3c(c(O)c1=O)C(=O)N1C4CCC(C4)OC1C3CC2` (stereo not shown) [Compound 165] the same measures were 6.42 nM and 56.1 nM.
In the case of `O=C(NCc1ccc(F)cc1F)c1c2n3c(c(O)c1=O)C(=O)N1CCCOC1C3CC2` (single isomer, unassigned) [Compound 58], the IC50 under setting [1] amounted to 0.845 nM and the IC50 under setting [2] was found to be 1520 nM.
For `CCNC1CC2C3OCCCN3C(=O)c3c(O)c(=O)c(C(=O)NCc4cccc(Cl)c4F)c1n32` (stereo not shown) [Compound 195] the same measures were 12.4 nM and 25.7 nM.
For `CCNC1CC2C3OCCCN3C(=O)c3c(O)c(=O)c(C(=O)NCc4c(F)cc(F)cc4F)c1n32` (stereo not shown) [Compound 181] the same measures were 6.41 nM and 29.9 nM.
For the molecule `C[C@H]1CN2C(=O)c3c(O)c(=O)c(C(=O)NCc4cccc(Cl)c4F)c4n3C(CC4)C2O1` (single isomer, unassigned) [Compound 43], the IC50 by setting is: under setting [1], 1.06 nM; under setting [2], 18.2 nM.
For `CCNC1CC2C3OCCCN3C(=O)c3c(O)c(=O)c(C(=O)NCc4ccc(F)cc4F)c1n32` (stereo not shown) [Compound 201] the same measures were 8.98 nM and 2060 nM.
